US20070185215A1, “Pharmaceutical composition containing obovatol as an active ingredient for the prevention and treatment of neurodegenerative diseases” (priority 2006, published 2007)

Legend:
[1] = tested on: BV-2 murine microglial cell line; assay: Inhibition of nitric oxide production in LPS-activated microglia (Griess reaction); type: cell-based; conditions: BV-2 cells, 100 ng/ml LPS, 24 hours
Experimental: (§1) The BV-2 murine microglial cell line, obtained from Prof. Eui-Ju, Choi, School of Life Sciences and Technology in Korea University, Korea, was treated with 100 ng/ml of LPS (lipopolysaccharide), known to activate microglial cells, in the presence of 1 μg/ml or 10 μg/ml obovatol for 24 hours, and then the nitric oxides secreted into the culture media were quantitatively analyzed using a Griess reaction method to determine the activity of the microglia. In detail, 50 μl of the microglial culture medium was reacted with 50 μl of the Griess reagent [1% sulfanilamide/0.1% naphthylethylene diamine dihydrochloride/2% phosphoric acid] at room temperature for 10 min, followed by measuring absorbance at 540 nm with the aid of a microplate reader (Anthos Labtec Instruments GmbH Salzburg, Austria). For comparison, magnolol, known to have a neuroprotective effect, was also tested in the same manner. Using NaNO2 as a standard material, inhibition rates of the test materials were calculated for the production of nitric oxides. Also, MTT assay was conducted to measure cytotoxicity in order to determine whether or not the inhibitory activity against microglial activity was attributed to cytotoxicity.

[2] = tested on: SD rats; assay: Acute oral toxicity assay in rats; type: in vivo
Experimental: Using six-week-old specific pathogen-free (SPF) SD rats, an acute toxicity assay was conducted. The rats were divided into groups of two rats. After being dissolved in injectable saline, the obovatol, obtained in Example 1, was orally administered once in a dosage of 1 g/kg/ml to the rat groups. Afterwards, observations were made of the death, clinical symptoms, and weight changes of the animals, and serological and serobiochemical assays were conducted. Also, an autopsy was carried out to examine abnormalities of the abdominal and thoracic organs with the naked eye.

[3] = tested on: BV-2 murine microglial cell line; assay: MTT assay for cytotoxicity; type: cell-based; conditions: concentrations as high as 30˜50 μg/ml
Experimental: as §1

[4] = Solubility (physical and chemical properties); type: physicochemical

Compound	inhibition at 1 µg/mL ([1]; Mus musculus, 1 μg/ml compound, read-out: Inhibition Rates (%) of Nitric Oxide Production) [%]	inhibition at 10 µg/mL ([1]; Mus musculus, 10 μg/ml compound, read-out: Inhibition Rates (%) of Nitric Oxide Production) [%]	Inhibition Rates (%) of Nitric Oxide Production ([1]; 1 μg/ml compound) [%]	Inhibition Rates (%) of Nitric Oxide Production ([1]; 10 μg/ml compound) [%]	Noticeable clinical symptoms or death ([2]; SD rats, oral, once, 1 g/kg/ml)	Toxicity in weight change, serological assay, serobiochemical assay, autopsy observations ([2]; SD rats, oral, once, 1 g/kg/ml)	Dose causing no toxic effects ([2]; rat, in vivo, po) [mg/kg]	Cytotoxicity as measured by MTT assay [3]	Solubility ([4]; Alcohol, DMSO)	Solubility ([4]; Hexane, water)
C=CCc1ccc(O)c(-c2cc(CC=C)ccc2O)c1 [Magnolol, magnolol, reference compound]	13.1	59	–	–	–	–	–	–	–	–
obovatol	–	–	29.8	83.3	None of the animals	not observed	≤ 500	did not exhibit cytotoxicity	Soluble	Insoluble
